Experimental data as given in patent publication US20210137854A1, “TAAR Receptor Agonists for the Treatment of Alopecia” (APPLIED BIOLOGY, INC., priority 2018, published 2021).

Assays:
Format in all cases: in vivo, human
scalp hair follicles [1] = assay: Hair shedding during brushing after topical solution versus placebo
Text: Participants included in the study were female subjects between ages of 18 and 60 who frequently use traumatic hair care practices, such as tight braids, head scarves, ponytails, extensions, hair rollers, hair weaves and heated styling appliances such as blow dryers, flat irons, heat setters and curling irons. Excluded subjects were those who experienced uncontrolled hypertension, those who were pregnant or breastfeeding, those who were diagnosed with pattern hair loss, or those who experienced other hair loss in conjunction with female pattern hair loss. Overall, fifteen female subjects, aged 24 to 40 years, participated in the study.
On day 1, subjects were instructed to wash their hair. On day 2, subjects were instructed to apply 1 mL of placebo solution containing vehicle and brush targeted area after 30 minutes. Brushing was conducted to frontal hair with regular brush in size of 8×10 cm^2. On day 3, subjects were instructed again to wash their hair. On day 4, subjects were instructed to apply 1 mL of 10% m-octopamine hydrochloride solution on targeted area and brush after 30 minutes.
The study was conducted over 4 days. On day 1, subjects were instructed to wash their hair. […]
Hair Shedding: To measure hair loss during cosmetic procedures, a 4-day protocol was designed. […] After each clinical procedure, the investigator counted the hairs collected on each brush. […]

scalp hair follicles [2] = assay: Epilation force threshold for plucking scalp hair (trichotillometer)
Protocol: To evaluate the effect of a topically applied TAAR agonist combination on the force required to pluck hairs from the scalp, a hand-held spring dynamometer, or “trichotillometer” was used. The trichotillometer records the maximum force threshold, in grams, required to pluck a single hair from the scalp; the performance and statistical variance of the instrument have been reported previously. […] The frontal area of scalp was divided into two 8×10 cm^2 areas. On the right side 0.5 mL of a placebo vehicle was applied. On the left side, 0.5 mL a 12% tyramine solution was applied. After 45 minutes, ten hairs were plucked from each of the target areas with the trichotillometer.

[3] = Cardiac or hemodynamic changes during topical α1-AR agonist studies; settings: subjects sampled during both studies
Text: It is recognized that […] of the α1 adrenergic receptor (α1-AR), a G-protein coupled receptor, expressed on the arrector pili muscle.

With `CNC[C@H](O)c1cccc(O)c1` [phenylephrine] the “subjects with reduced shedding compared to days using placebo solution” value (scalp hair follicles [1]; Examples 7 and 9, blinded study, female subjects ages 18-40) was 80%, the “reduction in hairs lost (shedding) during brushing” value (scalp hair follicles [1]; earlier studies of the inventors, phenylephrine 15 female subjects, AB-102 cohort of 40 women) was 40% and the “increase in epilatory force threshold for plucking hair follicles” value (scalp hair follicles [2]; following topical application, Examples 5 and 6, FIGS. 4-5) was 172%. The “increase in average threshold of force required to pluck hair” value (scalp hair follicles [2]; pilot study of 15 female subjects) was 172% and the “cardiac or hemodynamic changes” value [3] was “no cardiac or hemodynamic changes were observed”.
